Laboratory results reported in US20230417740A1, “TISSUE-MIMICKING HYDROGEL COMPOSITIONS FOR BIOFABRICATION” (Wake Forest University Health Sciences, priority 2014, published 2023).

System: bioprinted liver organoids
Format: cell-based
Conditions: 20 mM NAC with 10 mM APAP, general trend of the data

Structure (SMILES): CC(=O)N[C@@H](CS)C(=O)O [NAC, N-acetyl-L-cysteine]
- rescue of liver organoids from APAP insult: can be rescued
